Results reported in patent US11571423B2, “Small molecule modulators of human sting” (Curadev Pharma Limited, priority 2017, dated 2023).

Molecular target: hSTING(R232) (Homo sapiens, UniProt Q86WV6, H232R)
Test: Luciferase reporter assay in HEK293T-hSTING-Luciferase cells, R232 (wild type) human STING
Type: cell-based
Conditions: 20 hr stimulation, read-out: R232 human activity (EC50 range)
Text: Stable Cell Line Generation • a) Stable STING expressing cells—Stable HEK293T STING-expressing cell lines were generated using plasmids purchased from Invivogen, CA, USA, that contain STING cDNA cloned into the pUNO-1 vector under hEF1-HTLV promoter and containing the Blasticidin selection cassette. The plasmids hSTING(R232), hSTING(H232), hSTING(HAQ) were directly procured from Invivogen while hSTING (AQ) and hSTING (Q) were derived from hSTING(HAQ) and hSTING (R232) plasmids respectively by using a PCR based site directed mutagenesis method. These vectors were individually transfected into HEK293T cells using Lipofectamine (Invitrogen) and transfected cells were selected under Blasticidin selection. These transfected cells were further subjected to clonal selection using the limiting dilution method to obtain clonally pure populations of HEK cells transfected with each of the above mentioned human STING variants. Only those clones were selected in which ligand independent activation of STING was minimal. • b) Stable Luciferase reporter gene expressing cells—Stable HEK293T Luciferase reporter gene expressing cell lines were generated using pCDNA4 plasmids under an IRF-inducible promoter. This promoter is comprised of five tandem interferon-stimulated response elements (ISRE) fused to an ISG54 minimal promoter. This vector was transfected into HEK293T cells using Lipofectamine (Invitrogen) and transfected cells were selected under Zeocin selection. These transfected cells were further subjected to clonal selection using the limiting dilution method to obtain clonally pure populations of HEK cells transfected the Luciferase reporter construct. Only those clones were selected in which ligand independent induction of luciferase was minimal.
5×10^5 clonally selected HEK293T-hSTING-Luciferase cells were seeded in 384-well plates in growth medium and stimulated with novel compounds. After 20 hr of stimulation supernatant were removed and secretary reporter gene activity were measured using the Quanti-Luc detection system (Invivogen) on a Spectramax i3X luminometer.
In the tables below, EC50 value ranges for exemplary compounds are given.
All compounds were first tested in a primary screen to obtain a ‘fold-induction’ over baseline levels of protein activity.

Sequence of hSTING(R232) (Q86WV6 whole entry H232R): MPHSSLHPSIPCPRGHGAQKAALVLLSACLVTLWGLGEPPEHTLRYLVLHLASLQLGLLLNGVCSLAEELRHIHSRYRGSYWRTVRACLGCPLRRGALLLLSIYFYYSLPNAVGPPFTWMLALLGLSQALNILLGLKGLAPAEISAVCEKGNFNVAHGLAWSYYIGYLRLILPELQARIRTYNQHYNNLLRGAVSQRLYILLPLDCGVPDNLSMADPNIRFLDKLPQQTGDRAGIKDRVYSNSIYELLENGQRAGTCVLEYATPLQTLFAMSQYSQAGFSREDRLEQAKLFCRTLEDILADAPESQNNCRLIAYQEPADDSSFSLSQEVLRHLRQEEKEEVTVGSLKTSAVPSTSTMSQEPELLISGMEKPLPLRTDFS

EC50 | SMILES
< 1 µM | CC1c2ccc(C(=O)NCc3c(F)cc(F)cc3F)cc2N(Cc2c(F)cccc2Cl)C(=O)N1C (racemic) [Example 74, 1-(2-chloro-6-fluorobenzyl)-3,4-dimethyl-2-oxo-N-(2,4,6-trifluorobenzyl)-1,2,3,4-tetrahydroquinazoline-7-carboxamide]
1 to 10 µM | C[C@@H]1c2ccc(C(=O)NCc3c(F)cc(F)cc3F)cc2N(Cc2c(F)cccc2Cl)C(=O)N1C (single isomer, unassigned) [Example 75]
1 to 10 µM | CC(C)N1Cc2ccc(C(=O)NCc3c(F)cc(F)cc3F)cc2N(Cc2cc(F)cc(F)c2)C1=O [Example 15, 1-(3,5-difluorobenzyl)-3-isopropyl-2-oxo-N-(2,4,6-trifluorobenzyl)-1,2,3,4-tetrahydroquinazoline-7-carboxamide]
1 to 10 µM | CN1Cc2ccc(C(=O)NCc3cc4ccccc4o3)cc2N(Cc2cc(F)cc(F)c2)C1=O [Example 16, N-(benzofuran-2-ylmethyl)-1-(3.5-difluorobenzyl)-3-methyl-2-oxo-1,2,3,4-tetrahydroquinazoline-7-carboxamide]
1 to 10 µM | CN1Cc2ccc(C(=O)NCc3c(F)cc(F)cc3F)cc2N(Cc2ccc(F)cc2Cl)C1=O [Example 17, 1-(2-chloro-4-fluorobenzyl)-3-methyl-2-oxo-N-(2,4,6-trifluorobenzyl)-1,2,3,4-tetrahydroquinazoline-7-carboxamide]
1 to 10 µM | O=C(NCc1c(F)cc(F)cc1F)c1ccc2c(c1)N(Cc1cc(F)cc(F)c1)C(=O)NC2 [Example 18, 1-(3,5-difluorobenzyl)-2-oxo-N-(2,4,6-trifluorobenzyl)-1,2,3,4-tetrahydroquinazoline-7-carboxamide]
1 to 10 µM | CN1Cc2ccc(C(=O)NCc3c(F)cc(F)cc3F)cc2N(Cc2ccccc2Cl)C1=O [Example 19, l-(2-chlorobenzyl)-3-methyl-2-oxo-N-(2,4,6-trifluorobenzyl)-1,2,3,4-tetrahydroquinazoline-7-carboxamide]
> 10 µM | O=C(NCc1c(F)cc(F)cc1F)c1ccc2c(c1)N(Cc1c(F)cccc1Cl)C(=O)N(c1ncccn1)C2 [Example 21, 1-(2-chloro-6-fluorobenzyl)-2-oxo-3-(pyrimidin-2-yl)-N-(2,4,6-trifluorobenzyl)-1,2,3,4-tetrahydroquinazoline-7-carboxamide]
> 10 µM | COc1ccc2cc(CNC(=O)c3ccc4c(c3)N(Cc3c(F)cccc3Cl)C(=O)N(C)C4)oc2c1 [Example 22, 1-(2-chloro-6-fluorobenzyl)-N-((6-methoxybenzofuran-2-yl)methyl)-3-methyl-2-oxo-1,2,3,4-tetrahydroquinazoline-7-carboxamide]
1 to 10 µM | CN1Cc2ccc(C(=O)NCc3cc4ccc(F)cc4o3)cc2N(Cc2c(F)cccc2Cl)C1=O [Example 23, 1-(2-chloro-6-fluorobenzyl)-N-((6-fluorobenzofuran-2-yl)methyl)-3-methyl-2-oxo-1,2,3,4-tetrahydroquinazoline-7-carboxamide]
1 to 10 µM | CN1Cc2ccc(C(=O)NCc3cc4cc(F)ccc4o3)cc2N(Cc2c(F)cccc2Cl)C1=O [Example 24, 1-(2-chloro-6-fluorobenzyl)-N-((5-fluorobenzofuran-2-yl)methyl)-3-methyl-2-oxo-1,2,3,4-tetrahydroquinazoline-7-carboxamide]

The next lines start with the molecule.

SMILES | EC50
CN1Cc2ccc(C(=O)NCc3c(F)cc(F)cc3F)cc2N(Cc2cc(F)cc(F)c2)C1=O [Example 1, 1-(3,5-difluorobenzyl)-3-methyl-2-oxo-N-(2,4,6-trifluorobenzyl)-1,2,3,4-tetrahydroquinazoline-7-carboxamide] | < 1 µM
Cc1ccc(CNC(=O)c2ccc3c(c2)N(Cc2cc(F)cc(F)c2)C(=O)N(C)C3)o1 [Example 2, 1-(3,5-difluorobenzyl)-3-methyl-N-((5-methylfuran-2-yl)methyl)-2-oxo-1,2,3,4-tetrahydroquinazoline-7-carboxamide] | > 10 µM
O=C(NCc1c(F)cc(F)cc1F)c1ccc2c(c1)N(Cc1cc(F)cc(F)c1)C(=O)N(C1CC1)C2 [Example 3, 3-cyclopropyl-1-(3.5-difluorobenzyl)-2-oxo-N-(2,4,6-trifluorobenzyl)-1,2,3,4-tetrahydroquinazoline-7-carboxamide] | > 10 µM
CN1Cc2ccc(C(=O)NCc3ccc(F)cc3F)cc2N(Cc2cc(F)cc(F)c2)C1=O [Example 4, N-(2,4-difluorobenzyl)-1-(3,5-difluorobenzyl)-3-methyl-2-oxo-1,2,3,4-tetrahydroquinazoline-7-carboxamide] | < 1 µM
CN1Cc2ccc(C(=O)NCc3c(F)cc(F)cc3F)cc2N(Cc2c(F)cccc2Cl)C1=O [Example 5, 1-(2-chloro-6-fluorobenzyl)-3-methyl-2-oxo-N-(2,4,6-trifluorobenzyl)-1,2,3,4-tetrahydroquinazoline-7-carboxamide] | < 1 µM
CN1Cc2ccc(C(=O)NCc3c(F)cc(F)cc3F)cc2N(Cc2ccc(F)cc2)C1=O [Example 6, 1-(4-fluorobenzyl)-3-methyl-2-oxo-N-(2,4,6-trifluorobenzyl)-1,2,3,4-tetrahydroquinazoline-7-carboxamide] | < 1 µM
CCN1Cc2ccc(C(=O)NCc3c(F)cc(F)cc3F)cc2N(Cc2cc(F)cc(F)c2)C1=O [Example 7, 1-(3,5-difluorobenzyl)-3-ethyl-2-oxo-N-(2,4,6-trifluorobenzyl)-1,2,3,4-tetrahydroquinazoline-7-carboxamide] | 1 to 10 µM
CN1Cc2ccc(C(=O)NCc3c(F)cc(F)cc3F)cc2N(Cc2ccc(F)cc2F)C1=O [Example 8, 1-(2,4-difluorobenzyl)-3-methyl-2-oxo-N-(2,4,6-trifluorobenzyl)-1,2,3,4-tetrahydroquinazoline-7-carboxamide] | < 1 µM
Cc1cccc(F)c1CN1C(=O)N(C)Cc2ccc(C(=O)NCc3c(F)cc(F)cc3F)cc21 [Example 9, 1-(2-fluoro-6-methylbenzyl)-3-methyl-2-oxo-N-(2,4,6-trifluorobenzyl)-1,2,3,4-tetrahydroquinazoline-7-carboxamide] | < 1 µM
COc1cccc(F)c1CN1C(=O)N(C)Cc2ccc(C(=O)NCc3c(F)cc(F)cc3F)cc21 [Example 10, 1-(2-fluoro-6-methoxybenzyl)-3-methyl-2-oxo-N-(2,4,6-trifluorobenzyl)-1,2,3,4-tetrahydroquinazoline-7-carboxamide] | < 1 µM
CN1Cc2ccc(C(=O)NCc3c(F)cc(F)cc3F)cc2N(Cc2c(F)cccc2Br)C1=O [Example 11, 1-(2-bromo-6-fluorobenzyl)-3-methyl-2-oxo-N-(2,4,6-trifluorobenzyl)-1,2,3,4-tetrahydroquinazoline-7-carboxamide] | < 1 µM
CN1Cc2ccc(C(=O)NCc3c(F)cc(F)cc3F)cc2N(Cc2ccccc2F)C1=O [Example 12, 1-(2-fluorobenzyl)-3-methyl-2-oxo-N-(2,4,6-trifluorobenzyl)-1,2,3,4-tetrahydroquinazoline-7-carboxamide] | < 1 µM
Cc1cccc(CN2C(=O)N(C)Cc3ccc(C(=O)NCc4c(F)cc(F)cc4F)cc32)c1F [Example 13, 1-(2-fluoro-3-methylbenzyl)-3-methyl-2-oxo-N-(2,4,6-trifluorobenzyl)-1,2,3,4-tetrahydroquinazoline-7-carboxamide] | < 1 µM
CN1Cc2ccc(C(=O)NCc3c(F)cc(F)cc3F)cc2N(Cc2cccc(C(N)=O)c2)C1=O [Example 14, 1-(3-carbamoylbenzyl)-3-methyl-2-oxo-N-(2,4,6-trifluorobenzyl)-1,2,3,4-tetrahydroquinazoline-7-carboxamide] | 1 to 10 µM
